Laboratory results published in patent US20260070945A1, “MACROCYCLIC IMMUNOMODULATORS” (Bristol-Myers Squibb Company, priority 2022, published 2026).
*1 amine or outer side, *2 acyl side, *3 side chain or, on linkers, in order; H or OH if unused. Where a SMILES comes first, the peptide text is derived from it. Bridges are numbered along the chain shown (N, C = ends). [ ]: non-standard residue; d: D form. The star is where a group is joined. ξ: configuration not given here. Phe(3-CF3) = N[C@@H](Cc1cccc(C(F)(F)F)c1)C(=O)O; Ala(morpholin-4-yl) = N[C@@H](CN1CCOCC1)C(=O)O; Phe(4-COOH) = N[C@@H](Cc1ccc(C(=O)O)cc1)C(=O)O; Bip = N[C@@H](Cc1ccc(-c2ccccc2)cc1)C(=O)O; Phe(3-Me) = Cc1cccc(C[C@H](N)C(=O)O)c1; γGlu = O=C(O)[C@H](CCC(=O)[*:2])N[*:1]; Abu(3S-NH2) = C[C@H](N)[C@H](N)C(=O)O; NH(CH2)12COOH = O=C(O)CCCCCCCCCCCCN*; Val(3-OH) = CC(C)(O)[C@H](N)C(=O)O; Cha = N[C@@H](CC1CCCCC1)C(=O)O; Cit = NC(=O)NCCC[C@H](N)C(=O)O; Ile(3ξ) = CCC(C)[C@H](N)C(=O)O; Thr(3ξ) = CC(O)[C@H](N)C(=O)O; Carboxymethyl = O=C(O)C*; NMeA = CN[C@@H](C)C(=O)O; Orn = NCCC[C@H](N)C(=O)O; Aun = NCCCCCCCCCCC(=O)O; Dab = NCC[C@H](N)C(=O)O; Dap = NC[C@H](N)C(=O)O; AEEA = NCCOCCOCC(=O)O; ξDab = NCCC(N)C(=O)O

Molecular target: T1, PD-1/PD-L1 interaction (PE-labeled human PD-L1-Ig binding to Jurkat cell line over-expressing human PD-1) (Homo sapiens, UniProt Q15116)
T1 construct: expressed in transfected cells; host or cells: Jurkat
Experiment: Jurkat-PD-1 Cell Binding High-Content Screening Assay (CBA)
Details: Jurkat-hPD-1 cells, PE-labeled PD-L1-Ig 20 nM final; read-out: Jurkat HPD1 PDL1 IC50
Summary of the method: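 Compound is added first to the PD-1-expressing Jurkat cells and held 2 h at 37 °C in serum-containing DMEM. The fluorescent PD-L1 fusion follows at 20 nM final for 1 h. Fixed, Hoechst-stained cells are then imaged for bound label.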

T1 sequence (Q15116 25-288): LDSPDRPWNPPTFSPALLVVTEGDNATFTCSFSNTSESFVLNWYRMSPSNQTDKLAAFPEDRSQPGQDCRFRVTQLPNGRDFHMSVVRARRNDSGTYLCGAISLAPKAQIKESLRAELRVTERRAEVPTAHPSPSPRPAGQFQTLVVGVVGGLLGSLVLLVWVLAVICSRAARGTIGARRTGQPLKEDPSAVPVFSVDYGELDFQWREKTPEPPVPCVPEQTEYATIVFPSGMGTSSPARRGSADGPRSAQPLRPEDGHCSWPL

Row | IC50 | Structure (SMILES)
1 | 12.8 nM | Cc1cccc(C[C@@H]2NC(=O)[C@H](CC(=O)O)NC(=O)[C@H](Cc3ccc(C(=O)O)cc3)NC(=O)[C@H](Cc3ccc(OCC(=O)O)cc3)NC(=O)CSC[C@@H](C(=O)N[C@@H](CCN)C(=O)NCCCCCCCCCCC(=O)O)NC(=O)[C@H](C(C)O)NC(=O)[C@H](C(C)C)NC(=O)[C@H](CC3CCCCC3)NC(=O)[C@H](CCN)NC(=O)[C@@H](CC(C)C)NC(=O)[C@H](C)N(C)C(=O)[C@H](CCCNC(N)=O)NC(=O)[C@H](Cc3ccc(-c4ccccc4)cc3)NC(=O)[C@H](CC(C)C)NC2=O)c1 (stereo partly drawn) [Example 2324] ({CH2CO}-Y(Carboxymethyl)[Phe(4-COOH)]D[Phe(3-Me)]L[Bip][Cit][NMeA][dL][Dab][Cha]V[Thr(3ξ)]C[Dab][Aun]-OH; thioether N-14)
2 | 12.7 nM | Cc1cccc(C[C@@H]2NC(=O)[C@H](CC(=O)O)NC(=O)[C@H](Cc3ccc(OCC(=O)O)cc3)NC(=O)[C@H](CN)NC(=O)CSC[C@@H](C(=O)N[C@@H](CCN)C(=O)NCCCCCCCCCCC(=O)O)NC(=O)[C@H](CO)NC(=O)[C@H](C(C)C)NC(=O)[C@H](CC3CCCCC3)NC(=O)[C@H](CCN)NC(=O)[C@@H](CC(C)C)NC(=O)[C@H](C)N(C)C(=O)[C@H](Cc3ccc(OCC(=O)O)cc3)NC(=O)[C@H](Cc3ccc(-c4ccccc4)cc3)NC(=O)[C@H](Cc3ccc(OCC(=O)O)cc3)NC2=O)c1 [Example 1263] ({CH2CO}-[Dap]Y(Carboxymethyl)D[Phe(3-Me)]Y(Carboxymethyl)[Bip]Y(Carboxymethyl)[NMeA][dL][Dab][Cha]VSC[Dab][Aun]-OH; thioether N-14)
3 | 16 nM | CC(C)C[C@H]1NC(=O)[C@H](C)N(C)C(=O)[C@H](CCC(N)=O)NC(=O)[C@H](Cc2ccc(-c3ccccc3)cc2)NC(=O)[C@H](Cc2ccc(C(=O)O)cc2)NC(=O)[C@H](Cc2cccc(C(F)(F)F)c2)NC(=O)[C@H](CC(=O)O)NC(=O)[C@H](Cc2ccc(OCC(=O)O)cc2)NC(=O)[C@H](CN2CCOCC2)NC(=O)CSC[C@@H](C(=O)N[C@@H](CCN)C(=O)NCCCCCCCCCCCCC(=O)O)NC(=O)[C@H](CC(=O)O)NC(=O)[C@H](C(C)(C)O)NC(=O)[C@H](CC2CCCCC2)NC(=O)[C@H](CCN)NC1=O [Example 1150] ({CH2CO}-[Ala(morpholin-4-yl)]Y(Carboxymethyl)D[Phe(3-CF3)][Phe(4-COOH)][Bip]Q[NMeA][dL][Dab][Cha][Val(3-OH)]DC[Dab]-{NH(CH2)12COOH}; thioether N-14)
4 | 18 nM | CC(C)C[C@H]1NC(=O)[C@H](C)N(C)C(=O)[C@H](C(C)C)NC(=O)[C@H](Cc2ccc(-c3ccccc3)cc2)NC(=O)[C@H](C(C)C)NC(=O)[C@H](Cc2c[nH]c3ccccc23)NC(=O)[C@H](CC(=O)O)NC(=O)[C@H](Cc2ccc(C(=O)O)cc2)NC(=O)[C@H](Cc2ccc(OCC(=O)O)cc2)NC(=O)CSC[C@@H](C(=O)N[C@@H](CCN)C(=O)NCCCCCCCCCCC(=O)O)NC(=O)[C@H](CCCNC(N)=O)NC(=O)[C@H](C(C)C)NC(=O)[C@H](CC2CCCCC2)NC(=O)[C@H](CCN)NC1=O [Example 2290] ({CH2CO}-Y(Carboxymethyl)[Phe(4-COOH)]DWV[Bip]V[NMeA][dL][Dab][Cha]V[Cit]C[Dab][Aun]-OH; thioether N-14)
5 | 18.1 nM | Cc1cccc(C[C@@H]2NC(=O)[C@H](CC(=O)O)NC(=O)[C@H](Cc3ccc(OCC(=O)O)cc3)NC(=O)[C@H](CN)NC(=O)CSC[C@@H](C(=O)N[C@@H](CCN)C(=O)NCCOCCOCC(=O)NCCCCCCCCCCC(=O)O)NC(=O)[C@H](CCC(=O)O)NC(=O)[C@H](C(C)(C)O)NC(=O)[C@H](CC3CCCCC3)NC(=O)[C@H](CCN)NC(=O)[C@@H](CC(C)C)NC(=O)[C@H](C)N(C)C(=O)[C@H](Cc3ccc(OCC(=O)O)cc3)NC(=O)[C@H](Cc3ccc(-c4ccccc4)cc3)NC(=O)[C@H](Cc3ccc(OCC(=O)O)cc3)NC2=O)c1 [Example 1426] ({CH2CO}-[Dap]Y(Carboxymethyl)D[Phe(3-Me)]Y(Carboxymethyl)[Bip]Y(Carboxymethyl)[NMeA][dL][Dab][Cha][Val(3-OH)]EC[Dab][AEEA][Aun]-OH; thioether N-14)
6 | 28.1 nM | CC(C)C[C@H]1NC(=O)[C@H](C)N(C)C(=O)[C@H](CCC(N)=O)NC(=O)[C@H](Cc2ccc(-c3ccccc3)cc2)NC(=O)[C@H](Cc2ccc(C(=O)O)cc2)NC(=O)[C@H](Cc2cccc(C(F)(F)F)c2)NC(=O)[C@H](CC(=O)O)NC(=O)[C@H](Cc2ccc(OCC(=O)O)cc2)NC(=O)[C@H]([C@H](C)N)NC(=O)CSC[C@@H](C(=O)N[C@@H](CCN)C(=O)NCCOCCOCC(=O)N[C@@H](CCC(=O)NCCOCCOCC(=O)NCCCCCCCCCCCCC(=O)O)C(=O)O)NC(=O)[C@H](CCC(=O)O)NC(=O)[C@H](C(C)C)NC(=O)[C@H](CC2CCCCC2)NC(=O)[C@H](CCN)NC1=O [Example 1200] ({CH2CO}-[Abu(3S-NH2)]Y(Carboxymethyl)D[Phe(3-CF3)][Phe(4-COOH)][Bip]Q[NMeA][dL][Dab][Cha]VEC[Dab][AEEA][γGlu][AEEA]-{NH(CH2)12COOH}; thioether N-14)
7 | 28.1 nM | Cc1cccc(C[C@@H]2NC(=O)[C@H](CC(=O)O)NC(=O)[C@H](Cc3ccc(OCC(=O)O)cc3)NC(=O)[C@H]([C@@H](C)O)NC(=O)CSC[C@@H](C(=O)NC(CCN)C(=O)NCCOCCOCC(=O)NCCCCCCCCCCC(=O)O)NC(=O)[C@H](CCC(=O)O)NC(=O)[C@H](C(C)(C)O)NC(=O)[C@H](CC3CCCCC3)NC(=O)[C@H](CCN)NC(=O)[C@@H](CC(C)C)NC(=O)[C@H](C)N(C)C(=O)[C@H](Cc3ccc(OCC(=O)O)cc3)NC(=O)[C@H](Cc3ccc(-c4ccccc4)cc3)NC(=O)[C@H](Cc3ccc(C(=O)O)cc3)NC2=O)c1 (stereo partly drawn) [Example 1423] ({CH2CO}-TY(Carboxymethyl)D[Phe(3-Me)][Phe(4-COOH)][Bip]Y(Carboxymethyl)[NMeA][dL][Dab][Cha][Val(3-OH)]EC[ξDab][AEEA][Aun]-OH; thioether N-14)
8 | 137 nM | CC(C)C[C@H]1NC(=O)[C@H](C)N(C)C(=O)[C@H](Cc2ccc(OCC(=O)O)cc2)NC(=O)[C@H](Cc2ccc(-c3ccccc3)cc2)NC(=O)[C@H](Cc2ccc(OCC(=O)O)cc2)NC(=O)[C@H](Cc2c[nH]c3ccccc23)NC(=O)[C@H](CC(=O)O)NC(=O)[C@H](Cc2ccc(OCC(=O)O)cc2)NC(=O)[C@H]([C@@H](C)O)NC(=O)CSC[C@@H](C(=O)N[C@@H](CCN)C(=O)NCCOCCOCC(=O)NCCCCCCCCCCC(=O)O)NC(=O)[C@H](CCC(=O)O)NC(=O)[C@H](C(C)C)NC(=O)[C@H](CC2CCCCC2)NC(=O)[C@H](CC(N)=O)NC1=O [Example 1386] ({CH2CO}-TY(Carboxymethyl)DWY(Carboxymethyl)[Bip]Y(Carboxymethyl)[NMeA][dL]N[Cha]VEC[Dab][AEEA][Aun]-OH; thioether N-14)
9 | 59.7 nM | Cc1cccc(C[C@@H]2NC(=O)[C@H](CC(=O)O)NC(=O)[C@H](Cc3ccc(OCC(=O)O)cc3)NC(=O)[C@H]([C@@H](C)O)NC(=O)CSC[C@@H](C(=O)N[C@@H](CCCN)C(=O)NCCOCCOCC(=O)NCCCCCCCCCCC(=O)O)NC(=O)[C@H]([C@@H](C)O)NC(=O)[C@H](C(C)C)NC(=O)[C@H](CC3CCCCC3)NC(=O)[C@H](CC(N)=O)NC(=O)[C@@H](CC(C)C)NC(=O)[C@H](C)N(C)C(=O)[C@H](Cc3ccc(OCC(=O)O)cc3)NC(=O)[C@H](Cc3ccc(-c4ccccc4)cc3)NC(=O)[C@H](Cc3ccc(OCC(=O)O)cc3)NC2=O)c1 [Example 1365] ({CH2CO}-TY(Carboxymethyl)D[Phe(3-Me)]Y(Carboxymethyl)[Bip]Y(Carboxymethyl)[NMeA][dL]N[Cha]VTC[Orn][AEEA][Aun]-OH; thioether N-14)
10 | 67.7 nM | Cc1cccc(C[C@@H]2NC(=O)[C@H](CC(=O)O)NC(=O)[C@H](Cc3ccc(C(=O)O)cc3)NC(=O)[C@H](Cc3ccc(OCC(=O)O)cc3)NC(=O)CSC[C@@H](C(=O)NCC(=O)N[C@@H](CCC(=O)O)C(=O)NCCOCCOCC(=O)N[C@@H](CCC(=O)NCCOCCOCC(=O)NCCCCCCCCCCC(=O)O)C(=O)O)NC(=O)[C@H](CO)NC(=O)[C@H](C(C)C)NC(=O)[C@H](CC(C)C)NC(=O)[C@H](CC(N)=O)NC(=O)[C@@H](CC(C)C)NC(=O)[C@H](C)N(C)C(=O)[C@H](C(C)C)NC(=O)[C@H](Cc3ccc(-c4ccccc4)cc3)NC(=O)[C@H](CC(C)C)NC2=O)c1 [Example 1018] ({CH2CO}-Y(Carboxymethyl)[Phe(4-COOH)]D[Phe(3-Me)]L[Bip]V[NMeA][dL]NLVSCGE[AEEA][γGlu][AEEA][Aun]-OH; thioether N-14)

Same assay, conditions: PE-labeled PD-L1-Ig 20 nM final, Jurkat-hPD-1 cells; read-out: Jurkat HPD1 PDL1 IC50

Row | IC50 | Structure (SMILES)
11 | 25.5 nM | CC(C)C[C@@H]1NC(=O)[C@H](Cc2c[nH]c3ccccc23)NC(=O)[C@H](CC(=O)O)NC(=O)[C@H](Cc2ccc(C(=O)O)cc2)NC(=O)[C@H](Cc2ccc(OCC(=O)O)cc2)NC(=O)CSC[C@@H](C(=O)NCCOCCOCC(=O)NCCCCCCCCCCC(=O)O)NC(=O)[C@H](Cc2cnc[nH]2)NC(=O)[C@H](C(C)O)NC(=O)[C@H](CC2CCCCC2)NC(=O)[C@H](CCN)NC(=O)[C@@H](CC(C)C)NC(=O)[C@H](C)N(C)C(=O)[C@H](C(C)C)NC(=O)[C@H](Cc2ccc(-c3ccccc3)cc2)NC1=O (stereo partly drawn) [Example 2435] ({CH2CO}-Y(Carboxymethyl)[Phe(4-COOH)]DWL[Bip]V[NMeA][dL][Dab][Cha][Thr(3ξ)]HC[AEEA][Aun]-OH; thioether N-14)
12 | 4.4 nM | CCC(C)[C@@H]1NC(=O)[C@H](Cc2ccc(-c3ccccc3)cc2)NC(=O)[C@H](C(C)C)NC(=O)[C@H](Cc2c[nH]c3ccccc23)NC(=O)[C@H](CC(=O)O)NC(=O)[C@H](Cc2ccc(C(=O)O)cc2)NC(=O)[C@H](Cc2cnc[nH]2)NC(=O)CSC[C@@H](C(=O)N[C@@H](CCN)C(=O)NCCOCCOCC(=O)NCCOCCOCC(=O)NCCCCCCCCCCC(=O)O)NC(=O)[C@H](C(C)O)NC(=O)[C@H](C(C)O)NC(=O)[C@H](CC2CCCCC2)NC(=O)[C@H](CCN)NC(=O)[C@@H](CC(C)C)NC(=O)[C@H](C)N(C)C1=O (stereo partly drawn) [Example 2529] ({CH2CO}-H[Phe(4-COOH)]DWV[Bip][Ile(3ξ)][NMeA][dL][Dab][Cha][Thr(3ξ)][Thr(3ξ)]C[Dab][AEEA][AEEA][Aun]-OH; thioether N-14)
